US7537891B2, “Identification of polynucleotides for predicting activity of compounds that interact with and/or modulate protein tyrosine kinases and/or protein tyrosine kinase pathways in breast cells” (Bristol-Myers Squibb Company, priority 2002, dated 2009)

What was measured:
Assay in all cases: In vitro cytotoxicity assay (MTS)
Assay type in all cases: cell-based, human
Design in all cases: key to True Class: “S” represents Sensitive; “R” represents Resistant
[1] = system: MDA-MB-436 breast cell line
Procedure: (§1) The protein tyrosine kinase inhibitor compound (described in international application WO 00/62778, published Oct. 26, 2000) was tested for cytotoxicity in vitro against a panel of twenty-three human breast cell lines available from the American Type Culture Collection, ATCC, except H3396, which was obtained from Pacific Northwest Research Institute, Seattle Wash. The MCF7/Her2 cell line was established by stable transfection of MCF7 cells with the HER2 gene. Cytotoxicity was assessed in cells by the MTS (3-(4,5-dimethylthiazol-2-yl)-5-(3-carboxymethoxyphenyl)-2-(4-sulphenyl)-2H-tetrazolium, inner salt) assay (T. L. Riss et al., 1992, Mol. Biol. Cell, 3 (Suppl.):184a).
(§2) To carry out the assays, the breast cells were plated at 4,000 cells/well in 96 well microtiter plates, and 24 hours later, serially diluted drugs were added. The concentration range for the protein tyrosine kinase inhibitor compound BMS-A used in the cytotoxicity assay was from 5 μg/ml to 0.0016 μg/ml (roughly 10 μM to 0.0032 μM).
(§3) The cells were incubated at 37° C. for 72 hours at which time the tetrazolium dye, MTS (333 μg/ml final concentration), in combination with the electron coupling agent phenazine methosulfate (25 μM final concentration), was added. A dehydrogenase enzyme in live cells reduces the MTS to a form that absorbs light and can be quantified spectrophotometrically at 492 nM. The greater the absorbency the greater the number of live cells. The results are expressed as an IC50, which is the drug concentration required to inhibit cell proliferation (i.e. absorbance at 492 nm) to 50% of that of untreated control cells. The mean IC50 and standard deviation (SD) from multiple tests for each cell line were calculated.

BT-474 breast cell line = system: BT-474 breast cell line
Procedure: as §1, §2, §3

HCC1806 breast cell line = system: HCC1806 breast cell line
Procedure: as §1, §2, §3

BT-20 breast cell line = system: BT-20 breast cell line
Procedure: as §1, §2, §3

HCC70 breast cell line = system: HCC70 breast cell line
Procedure: as §1, §2, §3

[2] = system: MDA-MB-453 breast cell line
Procedure: as §1, §2, §3

SK-BR-3 breast cell line = system: SK-BR-3 breast cell line
Procedure: as §1, §2, §3

HCC1419 breast cell line = system: HCC1419 breast cell line
Procedure: as §1, §2, §3

AU-565 breast cell line = system: AU-565 breast cell line
Procedure: as §1, §2, §3

MCF7 breast cell line = system: MCF7 breast cell line
Procedure: as §1, §2, §3

HS578T breast cell line = system: HS578T breast cell line
Procedure: as §1, §2, §3

[3] = system: MDA-MB-468 breast cell line
Procedure: as §1, §2, §3

HCC1954 breast cell line = system: HCC1954 breast cell line
Procedure: as §1, §2, §3

ZR-75-1 breast cell line = system: ZR-75-1 breast cell line
Procedure: as §1, §2, §3

HCC38 breast cell line = system: HCC38 breast cell line
Procedure: as §1, §2, §3

HCC1428 breast cell line = system: HCC1428 breast cell line
Procedure: as §1, §2, §3

[4] = 72 hours, mean of 2 to 5 determinations, read-out: mean IC50 (μM) to BMS-A
[5] = assigned as in Table 1, based on the IC50 results for BMS-A
[6] = resistance/sensitivity to BMS-A based on IC50

Question: `Cc1nc(Nc2ncc(C(=O)Nc3c(C)cccc3Cl)s2)cc(N2CCN(CCO)CC2)n1` [BMS-A] was tested. Which IC50 ([1]; MDA-MB-436, 72 hours, mean of 2 to 5 determinations, read-out: mean IC50 (μM) to BMS-A) did it give?
Answer: > 9.52 µM

Question: And the Classification ([1]; MDA-MB-436, resistance/sensitivity to BMS-A based on IC50)?
Answer: Resistant (those having a log10(IC50) above the mean log10(IC50) were considered to be resistant)

Question: What about the “True Class” value ([1]; MDAMB436, assigned as in Table 1, based on the IC50 results for BMS-A) of the same compound?
Answer: R

Question: And the “True Class” value (BT-474 breast cell line; BT474, assigned as in Table 1, based on the IC50 results for BMS-A)?
Answer: R

Question: And the IC50 (BT-474 breast cell line; BT-474, 72 hours, mean of 2 to 5 determinations, read-out: mean IC50 (μM) to BMS-A)?
Answer: 6.74 µM

Question: And the Classification (BT-474 breast cell line; BT-474, resistance/sensitivity to BMS-A based on IC50)?
Answer: Resistant (those having a log10(IC50) above the mean log10(IC50) were considered to be resistant)

Question: What about the IC50 (HCC1806 breast cell line; [4]) of the same compound?
Answer: 0.219 µM

Question: What about the “True Class” value (HCC1806 breast cell line; [5]) of the same compound?
Answer: S

Question: And the Classification (HCC1806 breast cell line; [6])?
Answer: Sensitive (The cell lines with a log10(IC50) below the mean log10(IC50) were defined as sensitive to the compound)

Question: And the “True Class” value (BT-20 breast cell line; BT20, assigned as in Table 1, based on the IC50 results for BMS-A)?
Answer: S

Question: And the IC50 (BT-20 breast cell line; BT-20, 72 hours, mean of 2 to 5 determinations, read-out: mean IC50 (μM) to BMS-A)?
Answer: 0.165 µM

Question: And the Classification (BT-20 breast cell line; BT-20, resistance/sensitivity to BMS-A based on IC50)?
Answer: Sensitive (The cell lines with a log10(IC50) below the mean log10(IC50) were defined as sensitive to the compound)

Question: And the IC50 (HCC70 breast cell line; [4])?
Answer: 0.0337 µM

Question: What about the “True Class” value (HCC70 breast cell line; [5]) of the same compound?
Answer: S

Question: And the Classification (HCC70 breast cell line; [6])?
Answer: Sensitive (The cell lines with a log10(IC50) below the mean log10(IC50) were defined as sensitive to the compound)

Question: What about the IC50 ([2]; MDA-MB-453, 72 hours, mean of 2 to 5 determinations, read-out: mean IC50 (μM) to BMS-A) of the same compound?
Answer: > 9.52 µM

Question: And the Classification ([2]; MDA-MB-453, resistance/sensitivity to BMS-A based on IC50)?
Answer: Resistant (those having a log10(IC50) above the mean log10(IC50) were considered to be resistant)

Question: And the “True Class” value ([2]; MDAMB453, assigned as in Table 1, based on the IC50 results for BMS-A)?
Answer: R

Question: And the IC50 (SK-BR-3 breast cell line; SK-BR-3, 72 hours, mean of 2 to 5 determinations, read-out: mean IC50 (μM) to BMS-A)?
Answer: 2.75 µM

Question: What about the Classification (SK-BR-3 breast cell line; SK-BR-3, resistance/sensitivity to BMS-A based on IC50) of the same compound?
Answer: Resistant (those having a log10(IC50) above the mean log10(IC50) were considered to be resistant)

Question: What about the “True Class” value (SK-BR-3 breast cell line; SkBr3, assigned as in Table 1, based on the IC50 results for BMS-A) of the same compound?
Answer: R

Question: And the IC50 (HCC1419 breast cell line; [4])?
Answer: 2.51 µM

Question: And the “True Class” value (HCC1419 breast cell line; [5])?
Answer: R

Question: What about the Classification (HCC1419 breast cell line; [6]) of the same compound?
Answer: Resistant (those having a log10(IC50) above the mean log10(IC50) were considered to be resistant)

Question: What about the “True Class” value (AU-565 breast cell line; AU565, assigned as in Table 1, based on the IC50 results for BMS-A) of the same compound?
Answer: R

Question: And the IC50 (AU-565 breast cell line; AU-565, 72 hours, mean of 2 to 5 determinations, read-out: mean IC50 (μM) to BMS-A)?
Answer: 5.24 µM

Question: And the Classification (AU-565 breast cell line; AU-565, resistance/sensitivity to BMS-A based on IC50)?
Answer: Resistant (those having a log10(IC50) above the mean log10(IC50) were considered to be resistant)

Question: What about the IC50 (MCF7 breast cell line; [4]) of the same compound?
Answer: > 9.52 µM

Question: And the “True Class” value (MCF7 breast cell line; [5])?
Answer: R

Question: What about the Classification (MCF7 breast cell line; [6]) of the same compound?
Answer: Resistant (those having a log10(IC50) above the mean log10(IC50) were considered to be resistant)

Question: What about the IC50 (HS578T breast cell line; HS578T, 72 hours, mean of 2 to 5 determinations, read-out: mean IC50 (μM) to BMS-A) of the same compound?
Answer: 0.647 µM

Question: And the Classification (HS578T breast cell line; HS578T, resistance/sensitivity to BMS-A based on IC50)?
Answer: Sensitive (The cell lines with a log10(IC50) below the mean log10(IC50) were defined as sensitive to the compound)

Question: And the “True Class” value (HS578T breast cell line; Hs578T, assigned as in Table 1, based on the IC50 results for BMS-A)?
Answer: S

Question: And the IC50 ([3]; MDA-MB-468, 72 hours, mean of 2 to 5 determinations, read-out: mean IC50 (μM) to BMS-A)?
Answer: 7.13 µM

Question: And the Classification ([3]; MDA-MB-468, resistance/sensitivity to BMS-A based on IC50)?
Answer: Resistant (those having a log10(IC50) above the mean log10(IC50) were considered to be resistant)

Question: And the “True Class” value ([3]; MDAMB468, assigned as in Table 1, based on the IC50 results for BMS-A)?
Answer: R

Question: And the IC50 (HCC1954 breast cell line; [4])?
Answer: 0.0242 µM

Question: What about the “True Class” value (HCC1954 breast cell line; [5]) of the same compound?
Answer: S

Question: What about the Classification (HCC1954 breast cell line; [6]) of the same compound?
Answer: Sensitive (The cell lines with a log10(IC50) below the mean log10(IC50) were defined as sensitive to the compound)

Question: What about the IC50 (ZR-75-1 breast cell line; ZR-75-1, 72 hours, mean of 2 to 5 determinations, read-out: mean IC50 (μM) to BMS-A) of the same compound?
Answer: > 9.52 µM

Question: And the Classification (ZR-75-1 breast cell line; ZR-75-1, resistance/sensitivity to BMS-A based on IC50)?
Answer: Resistant (those having a log10(IC50) above the mean log10(IC50) were considered to be resistant)

Question: What about the “True Class” value (ZR-75-1 breast cell line; Zr-75-1, assigned as in Table 1, based on the IC50 results for BMS-A) of the same compound?
Answer: R

Question: And the IC50 (HCC38 breast cell line; [4])?
Answer: 6.63 µM

Question: What about the “True Class” value (HCC38 breast cell line; [5]) of the same compound?
Answer: R

Question: What about the Classification (HCC38 breast cell line; [6]) of the same compound?
Answer: Resistant (those having a log10(IC50) above the mean log10(IC50) were considered to be resistant)

Question: What about the IC50 (HCC1428 breast cell line; [4]) of the same compound?
Answer: 7.29 µM

Question: And the “True Class” value (HCC1428 breast cell line; [5])?
Answer: R

Question: What about the Classification (HCC1428 breast cell line; [6]) of the same compound?
Answer: Resistant (those having a log10(IC50) above the mean log10(IC50) were considered to be resistant)
